pIC50: −log10 of the molar value.
Experiments:
[1] = target: human BCL6 BTB domain (Trx-6×His-BCL6) / BCOR-AF633 peptide (Homo sapiens (Human), UniProt P41182); experiment: HTRF assay; assay type: binding; conditions: 1 nM Trx-6×His-BCL6, 300 nM BCOR-AF633 peptide, 2 hours incubation
[2] = target: BCL6-NCOR2(SMRT) corepressor protein-protein interaction (Homo sapiens (Human), UniProt P41182); experiment: NanoBRET cell assay; assay type: cell-based; conditions: for IC50: read-out: NanoBRET cell avg pIC50 (converted); for NanoBRET cell avg pIC50: HEK293T cells co-transfected with BCL6-nanoLuc and NCOR2-HaloTag, 6 hr incubation
Source text: At 20 hr post-transfection, cells were collected, washed with PBS, and exchanged into media containing phenol red-free OptiMEM+4% FBS (Life Technology).

pIC50 ([1]; HTRF avg pIC50 (1 nM)) | Compound | HTRF avg pIC50 (1 nM) [1] | IC50 [2] | NanoBRET cell avg pIC50 [2]
– | Cn1c(=O)c2c(c3cc(Nc4nc(N5C6CCC5COC6)ncc4Cl)ccc31)N[C@@H](C1CC1)CCO2 [Example 5l, (R)-10-((2-(3-oxa-8-azabicyclo[3.2.1]octan-8-yl)-5-chloropyrimidin-4-yl)amino)-2-cyclopropyl-7-methyl-1,2,3,4-tetrahydro-[1,4]oxazepino[2,3-c]quinolin-6(7H)-one] | 7.49 | 120 nM | –
– | Cn1c(=O)c2c(c3cc(Nc4ccnc(Cl)c4Cl)ccc31)N[C@@H](C1CC1)CCO2 [Example 4c] | 6.85 | 708 nM | –
– | C[C@H]1CCOc2c(c3cc(Nc4ccnc(Cl)c4Cl)ccc3n(C)c2=O)N1 [Example 4a, (S)-10-((2,3-dichloropyridin-4-yl)amino)-2,7-dimethyl-1,2,3,4-tetrahydro-[1,4]oxazepino[2,3-c]quinolin-6(7H)-one] | 6.21 | 4900 nM | –
– | COCC1(C)CCOc2c(c3cc(Nc4ccnc(Cl)c4C#N)ccc3n(C)c2=O)N1 (stereo not shown) [Example 1g, 2-chloro-4-((2-(methoxymethyl)-2,7-dimethyl-6-oxo-1,2,3,4,6,7-hexahydro-[1,4]oxazepino[2,3-c]quinolin-10-yl)amino)nicotinonitrile] | 6.30 | 2510 nM | –
– | Cn1c(=O)c2c(c3cc(Nc4nc(N5C6CCC5CS(=O)(=O)C6)ncc4Cl)ccc31)N[C@@H](C1CC1)C(F)(F)CO2 [Example 12w, (S)-10-((5-chloro-2-(3,3-dioxido-3-thia-8-azabicyclo[3.2.1]octan-8-yl)pyrimidin-4-yl)amino)-2-cyclopropyl-3,3-difluoro-7-methyl-1,2,3,4-tetrahydro-[1,4]oxazepino[2,3-c]quinolin-6(7H)-one] | 8.73 | 11 nM | –
– | Cn1c(=O)c2c(c3cc(Nc4nc(N5C6CCC5COC6)ncc4Cl)ccc31)N[C@@H](C1CC1)C(F)(F)CO2 [Example 12v, (S)-10-((2-(3-oxa-8-azabicyclo[3.2.1]octan-8-yl)-5-chloropyrimidin-4-yl)amino)-2-cyclopropyl-3,3-difluoro-7-methyl-1,2,3,4-tetrahydro-[1,4]oxazepino[2,3-c]quinolin-6(7H)-one] | 8.86 | 8.32 nM | –
– | Cn1c(=O)c2c(c3cc(Nc4nc(N5C6COCC5CC(O)C6)ncc4Cl)ccc31)N[C@@H](C1CC1)C(F)(F)CO2 (stereo partly drawn) [Example 11c, (S)-10-((5-chloro-2-((1R,5S,7R)-7-hydroxy-3-oxa-9-azabicyclo[3.3.1]-nonan-9-yl)pyrimidin-4-yl)amino)-2-cyclopropyl-3,3-difluoro-7-methyl-1,2,3,4-tetrahydro-[1,4]oxazepino[2,3-c]quinolin-6(7H)-one] | 8.93 | – | 8.19
– | Cn1c(=O)c2c(c3cc(Nc4nc(N5C6CCC5CS(=O)(=O)C6)ncc4Cl)ccc31)N[C@@H](C1CC1)CCO2 [Example 12j, (R)-10-((5-chloro-2-(3,3-dioxido-3-thia-8-azabicyclo[3.2.1]octan-8-yl)pyrimidin-4-yl)amino)-2-cyclopropyl-7-methyl-1,2,3,4-tetrahydro-[1,4]oxazepino[2,3-c]quinolin-6(7H)-one] | 7.78 | 234 nM | –
– | CN(C)C(=O)C1CCN(c2ncc(Cl)c(Nc3ccc4c(c3)c3c(c(=O)n4C)C(=O)OC[C@H](C4CC4)N3)n2)CC1 [Example 8m, (S)-1-(5-chloro-4-((2-cyclopropyl-7-methyl-5,6-dioxo-1,2,3,5,6,7-hexahydro-[1,4]oxazepino[6,5-c]quinolin-10-yl)amino)pyrimidin-2-yl)-N,N-dimethylpiperidine-4-carboxamide] | 6.28 | 31600 nM | –
– | C[C@H]1COC(=O)c2c(c3cc(Nc4nc(N5C6CCCC5CC6)ncc4Cl)ccc3n(C)c2=O)N1 [Example 8b, (2S)-10-((2-(8-azabicyclo[3.2.1]octan-8-yl)-5-chloropyrimidin-4-yl)amino)-2,7-dimethyl-2,3-dihydro-[1,4]oxazepino[6,5-c]quinoline-5,6(1H,7H)-dione] | 6.85 | 2190 nM | –
– | Cn1c(=O)c2c(c3cc(Nc4nc(N5C6CCC5CC(O)C6)ncc4Cl)ccc31)N[C@@H](C1CC1)CCO2 (stereo partly drawn) [Example 12f, (R)-10-((5-chloro-2-((1R,3R,5S)-3-hydroxy-8-azabicyclo[3.2.1]octan-8-yl)pyrimidin-4-yl)amino)-2-cyclopropyl-7-methyl-1,2,3,4-tetrahydro-[1,4]oxazepino[2,3-c]quinolin-6(7H)-one] | 7.96 | 295 nM | –
8.58 | Cn1c(=O)c2c(c3cc(Nc4nc(N5CC6CCC(C5)O6)ncc4Cl)ccc31)N[C@@H](C1CC1)C(F)(F)CO2 [Example 12u, (S)-10-((2-(8-oxa-3-azabicyclo[3.2.1]octan-3-yl)-5-chloropyrimidin-4-yl)amino)-2-cyclopropyl-3,3-difluoro-7-methyl-1,2,3,4-tetrahydro-[1,4]oxazepino[2,3-c]quinolin-6(7H)-one] | – | – | 7.83
– | C[C@@H]1CN(c2nc(Cl)c(Cl)c(Nc3ccc4c(c3)c3c(c(=O)n4C)OCC[C@H](C4CC4)N3)n2)C[C@H](C)O1 [Example 1r, (R)-2-cyclopropyl-10-((5,6-dichloro-2-((2S,6R)-2,6-dimethylmorpholino)pyrimidin-4-yl)amino)-7-methyl-1,2,3,4-tetrahydro-[1,4]oxazepino[2,3-c]quinolin-6(7H)-one] | 6.51 | 1020 nM | –
– | C[C@@H]1CN(c2ncc(Cl)c(Nc3ccc4c(c3)c3c(c(=O)n4C)OCC[C@H](C)N3)n2)C[C@H](C)O1 [Example 5g, (S)-10-((5-chloro-2-((2S,6R)-2,6-dimethylmorpholino)pyrimidin-4-yl)amino)-2,7-dimethyl-1,2,3,4-tetrahydro-[1,4]oxazepino[2,3-c]quinolin-6(7H)-one] | 6.88 | 2040 nM | –
– | O=c1c2c(c3cc(Nc4nc(N5C6COCC5CC(O)C6)ncc4Cl)ccc3n1CC1CC(F)(F)C1)N[C@@H](C1CC1)CCO2 (stereo partly drawn) [Example 5u, (R)-10-((5-chloro-2-((1R,5S,7S)-7-hydroxy-3-oxa-9-azabicyclo[3.3.1]nonan-9-yl)pyrimidin-4-yl)amino)-2-cyclopropyl-7-((3,3-difluorocyclobutyl)methyl)-1,2,3,4-tetrahydro-[1,4]oxazepino[2,3-c]quinolin-6(7H)-one] | 8.08 | 28.8 nM | –
– | Cn1c(=O)c2c(c3cc(Nc4nc(-n5ccc(C(F)(F)F)n5)ncc4Cl)ccc31)N[C@@H](C1CC1)CCO2 [Example 5a, (R)-10-((5-chloro-2-(3-(trifluoromethyl)-1H-pyrazol-1-yl)pyrimidin-4-yl)amino)-2-cyclopropyl-7-methyl-1,2,3,4-tetrahydro-[1,4]oxazepino[2,3-c]quinolin-6(7H)-one] | 7.03 | 617 nM | –
– | C[C@H]1COC(=O)c2c(c3cc(Nc4nc(N5C6CCC5CC(F)(F)C6)ncc4Cl)ccc3n(C)c2=O)N1 [Example 8f, (2S)-10-((5-chloro-2-(3,3-difluoro-8-azabicyclo[3.2.1]octan-8-yl)pyrimidin-4-yl)amino)-2,7-dimethyl-2,3-dihydro-[1,4]oxazepino[6,5-c]quinoline-5,6(1H,7H)-dione] | 6.67 | 6920 nM | –
